Test results as given in US9296687B2, “Modulators of HSP70/DnaK function and methods of use thereof” (The Trustees of the University of Pennsylvania, priority 2008, dated 2016).
“Also recorded” adds a separate entry of the source.

Tests used:
[1] = tested on: NF-κB; experiment: NF-κB-dependent luciferase reporter in H1299 cells; assay type: cell-based, human
Procedure: FIG. 4. PES Interferes with HSP70 Actions. […] (B) IP-WB analyses of WCE from PES-treated U2OS osteosarcoma cells reveal a lower bundance of HSP70 complexes containing BAG-1M or APAF1. […] Note evidence of caspase cleavage in cisplatin-treated cells, but not in the presence of PES. […] (D) (left) H1299 cells were transfected with a NF-κB-dependent luciferase reporter. 24 h later, cells were either pretreated with DMSO or the indicated amount of PES for 1 h, followed by the addition of 20 ng/ml of TNFα for 5 h, as specified. Each graphical representation indicates the mean±SD of at least three independent cultures relative to control (DMSO-treated) cells. (right) H1299 cells were treated with 20 μM PES for 5.7 h, followed by treatment with 10 ng/ml TNFα for 20 min. WCE were immunoblotted for the proteins indicated.

[2] = MTT cell viability assay; assay type: cell-based, human; conditions: human; 20 μM, all tumor cell lines examined; read-out: loss of cell viability
Procedure: (§1) Cell viability assays were performed using an MTT (methyl thiazolyl tetrazolium) colorimetric assay (Roche Applied Science, Cat. No. 11 465 007 001), with the following modifications. Briefly, cells (1×10^4) were plated into 24 well-assay plates in 0.5 ml media and allowed to attach overnight. […] After the incubation period, 50 μl of the water-soluble MTT labeling reagent [3-[4,5-dimethylthiazol-2-yl]-2,5-diphenyl tetrazolium bromid] were added to the cells, and the cells were incubated for 4 h in a humidified chamber at 37° C. with 5% CO2. The metabolized insoluble formazan crystals were then solubilized using 0.5 ml of the Solubilization solution (10% SDS in 0.01M HCl) per well, and the resulting colored solutions were spectrophotometrically quantified at an absorbance of 570 nm.

[3] = tested on: tumor cell lines; experiment: MTT cell viability assay; assay type: cell-based, human
Procedure: as §1

[4] = tested on: H1299 human lung carcinoma cells; experiment: MTT cell viability assay; assay type: cell-based
Procedure: as §1

[5] = tested on: WI38 human fetal lung fibroblasts; experiment: MTT cell viability assay; assay type: cell-based; conditions: except at the highest concentration tested (20 μM)
Procedure: as §1

[6] = tested on: normal human lung fibroblasts (IMR90); experiment: MTT cell viability assay; assay type: cell-based; conditions: 24 h, except at the highest concentrations used
Procedure: as §1

[7] = tested on: U2OS cells; experiment: Long-lived protein degradation assay; assay type: cell-based, human; conditions: 20 μM
Procedure: The long-lived protein degradation assays were performed as described (Humbey et al., 2008; Pimkina et al., 2008), but with the following modifications. The cells were seeded at 30% confluency. The cells were then labeled at 37° C. for 14 h in L-valine-free medium supplemented with dialyzed FBS medium containing 0.2 mCi/ml of L-[^14C]valine (Amersham Pharmacia). After the radiolabeling period, unincorporated radioisotope was removed by three rinses with PBS (pH 7.4). Cells were then incubated at 37° C. in fresh complete media [Dulbecco's modified Eagle's medium (DMEM), 10% fetal bovine serum (FBS), 1% penicillin-streptomycin (PS)] containing 2 mM unlabeled valine for 10 h to allow the degradation of labeled short-lived proteins. Cells were then rinsed 3 times with PBS (pH 7.4), and grown in fresh complete media [DMEM, 10% FBS, 1% PS] containing either DMSO or 20 μM PES. Aliquots of the media (0.2 ml in duplicate) were taken at 0 h, 4 h, 8 h, 24 h, and 48 h and mixed with 0.2 ml of 1% bovine serum albumin and 0.4 ml of 40% trichloroacetic acid (v/v). […] Radioactivity in the aliquots was measured on a Beckman liquid scintillation system. The percentage of long-lived protein degraded was obtained by the formula % degradation=(^14C counts at timepoint/sum of ^14C counts at each time point+total cell-associated radioactivity)×100.

[8] = tested on: MCF7 human breast carcinoma cells; experiment: MTT assay, PES followed by 17-AAG; assay type: cell-based; conditions: 5 μM PES 1 h, then 17-AAG 47 h
Procedure: FIG. 17. PES impairs the proteasome system. (A) Cell-based 20S proteasome activity assay of H1299 or A875 human tumor cells treated with DMSO, 20 μM PES, 100 nM Velcade (proteasome inhibitor), 1 μM 17-AAG (HSP90 inhibitor), 5 μM CQ (lysosome inhibitor), or 20S proteasome inhibitor epigallocatechin gallate (EGCG). Each graphical representation indicates the mean±SD of at least three independent cultures relative to control (DMSO-treated) cells. (B) Cell extracts from SKBR3 human breast carcinoma cells, treated either with 20 μM PES or 1 μM 17-AAG for 24 h, were immunoprecipitated (IP) using anti-HSP70 or anti-HSP90 antibody. […] MTT assays of MCF7 human breast carcinoma cells pretreated with DMSO, or 5 μM PES for 1 h, followed by the addition of indicated amount of 17-AAG for 47 h. The results represent the mean±SD of at least three independent analysis of cultures relative to control (DMSO-treated) cells. […]
Cell viability assays were performed using an MTT (methyl thiazolyl tetrazolium) colorimetric assay (Roche Applied Science, Cat. No. 11 465 007 001), with the following modifications. […] The metabolized insoluble formazan crystals were then solubilized using 0.5 ml of the Solubilization solution (10% SDS in 0.01M HCl) per well, and the resulting colored solutions were spectrophotometrically quantified at an absorbance of 570 nm.

[9] = target: HSP70 (Homo sapiens, UniProt P0DMV8); experiment: Competition of untagged PES with B-PES for HSP70; assay type: binding; set-up: endogenous in cells; host or cells: human tumor cell lines (A875, BX-U2OS, U2OS, H1299, MiaPaCa2, HepG2, SKBR3, 293T)
Procedure: FIG. 15. Evidence supporting HSP70 as the cellular target of PES. (A) Competition studies in vivo support HSP70 as a PES target. H1299 cells were either pre-treated with DMSO or excess (25×) untagged PES for 1 h prior to the addition of 20 μM Biotin-PES (B-PES) for 5 h, and examined for the expression of proteins indicated (left). B-PES-containing complexes were captured by NeutrAvidin Resins, and immunoblotted using the indicated antibodies. […] (B) Competition studies in vitro support HSP70 as a PES target. Purified HSP70 protein was incubated with 0.25 mM B-PES in the absence and in the presence of 0.125 mM untagged PES.

Chain of HSP70 (P0DMV8 whole entry): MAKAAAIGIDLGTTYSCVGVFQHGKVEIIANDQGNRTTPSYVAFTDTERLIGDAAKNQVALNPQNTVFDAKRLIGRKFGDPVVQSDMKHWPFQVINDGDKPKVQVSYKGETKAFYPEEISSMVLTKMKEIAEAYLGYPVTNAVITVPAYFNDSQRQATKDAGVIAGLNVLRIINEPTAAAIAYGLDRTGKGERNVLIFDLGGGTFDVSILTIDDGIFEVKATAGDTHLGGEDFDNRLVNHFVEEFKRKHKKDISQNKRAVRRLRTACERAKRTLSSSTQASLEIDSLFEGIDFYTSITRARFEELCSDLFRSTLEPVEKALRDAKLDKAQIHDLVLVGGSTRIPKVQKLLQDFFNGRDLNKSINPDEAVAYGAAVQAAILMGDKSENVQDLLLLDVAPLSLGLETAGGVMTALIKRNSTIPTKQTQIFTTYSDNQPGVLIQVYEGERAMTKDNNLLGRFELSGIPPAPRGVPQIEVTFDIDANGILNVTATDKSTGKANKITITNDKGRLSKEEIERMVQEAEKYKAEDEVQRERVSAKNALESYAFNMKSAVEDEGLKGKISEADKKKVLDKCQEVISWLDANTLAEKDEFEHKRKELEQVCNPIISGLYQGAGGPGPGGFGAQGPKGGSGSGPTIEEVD

Compound: NS(=O)(=O)C#Cc1ccccc1 [PES, 2-Phenylethynesulfonamide]
- unstimulated NF-κB activity [1]: inhibited unstimulated NF-κB activity in a dose-dependent manner
- NF-κB activation stimulated by TNFα ([1]; TNFα): inhibited NF-κB activation
- cytotoxicity at 20 μM [2]: > 50%
- IC50 ([3]; Homo sapiens, various tumor cell lines, read-out: half maximal concentration to exert cytotoxic effect (IC50)): 4 to 10 µM
- cell viability, dose response ([3]; all tumor cell lines examined): dose-dependent loss of cell viability
- cell viability [4]: effective at killing HI299 lung carcinoma cells; also recorded: dose-dependent loss of viability
- PES-induced cell death after silencing of HSP70 ([4]; HSP70 shRNA, 20 μM PES 24 h): rescued PES-induced cell death
- cell viability [5]: no decrease in cell viability
- cell viability [6]: minimal effect
- basal degradation of long-lived proteins [7]: significantly reduced
- cell killing by 17-AAG [8]: sensitizes cells to cell killing by 17-AAG
- binding of HSP70 to B-PES matrix with competitor ([9]; H1299 cells, excess (25×) untagged PES 1 h, then 20 μM B-PES 5 h): Binding of HSP70 to the matrix is reduced
- B-PES/HSP70 complex formation ([9]; purified HSP70, 0.25 mM B-PES, 0.125 mM untagged PES): reduces B-PES/HSP70 complex formation
